Reference: US20200129499A1, “COMBINATION OF TASQUINIMOD OR A PHARMACEUTICALLY ACCEPTABLE SALT THEREOF AND A PD-1 AND/OR PD-L1 INHIBITOR, FOR USE AS A MEDICAMENT” (ACTIVE BIOTECH AB, priority 2015, published 2020)

System: MBT-2 tumors
Assay: Gene expression profiling (qRT-PCR) in MBT-2 tumors after 10 days of tasquinimod (Example 2)
Assay type: in vivo, mouse
Conditions: 30 mg/kg p.o. twice daily from day 10 for 10 days; FIG. 2
Procedure: FIG. 2: Gene expression profiling in MBT-2 tumors derived from mice treated with 30 mg/kg p.o. of tasquinimod twice daily from day 10 after tumor inoculation. Tasquinimod treatment was carried out for 10 days. Data are represented as fold change of treated tumors compared to control tumors.
Mice were treated as described in Example 1. After 10 days of treatment with tasquinimod, i.e. 20 days after tumor inoculation, RNA from tumors was isolated from 100 μηη of OCT-embedded tumor cryosections using Trizol Reagent (Life Technologies). RNA concentration and purity was determined through measurement of A260/A280 ratios with a NanoDrop ND-1000 spectrophotometer. RNA integrity was checked using the Agilent 2100 Bioanalyzer. cDNA was prepared using High-Capacity cDNA Reverse Transcription Kit (LifeTechnologies) following the manufacturer's instructions. Q-PCR was performed with a […] PCR-protocol (95° C. for 10 min, followed by 40 cycles of 95° C. for 15 sec and 60° C. for 1 min) using Taqman gene expression (LifeTechnologies). Expression levels were calculated as normalized ACt expression values between target gene and the two “housekeeping” and Hmbs and Cyclophilin A for Taqman technology. Data were presented as fold induction (2AACt) of treated tumors compared to control tumors. The probes used in the experiments are the following: […]

COc1cccc2c1c(O)c(C(=O)N(C)c1ccc(C(F)(F)F)cc1)c(=O)n2C [tasquinimod, 4-hydroxy-5-methoxy-N,1-dimethyl-2-oxo-N-[4-(trifluoromethyl)phenyl]-1,2-dihydroquinoline-3-carboxamide]
expression of 11-12b: increase | expression of CD206, a M2 macrophage marker: decrease | expression of nos2: increase | mRNA expression of Cd274 in the tumor microenvironment: increase
